Measurements: US20090247611A1, “METHOD OF TREATING A CANCER WITH A SURVIVIN ANTISENSE OLIGONUCLEOTIDE AND PACLITAXEL” (priority 2004, published 2009)

Key:
HeLa cells = test: cell based caspase 3 assay; settings: oligonucleotide 50 nM transfected 24 h, then 10 nM gemcitabine HCl or 1.25 nM paclitaxel for additional 48 h, compared to untreated control
Method: The assay is performed as described below.
HeLa cells are obtained from ATCC, Manassas, Va. and are cultured in DMEM with L-Glutamine medium (Gibco/Invitrogen) supplemented with 10% Fetal Bovine Serum (Hyclone), 0.1 mM Non-Essential Amino Acids, and 1 mM Sodium Pyruvate (Gibco/Invitrogen). For the caspase-3 assay, 96-well plates are plated with 1×10^4 cells/well. […] Caspases-3 activity is measured by reading proteolytically released fluor from the Ac-DEVD-AMC substrate using a plate-reading fluorometer with excitation at 360 nm and emission at 460 nm. After subtracting the plate background, the relative fluorescence units (RFU) are compared to untreated control and expressed as percentage increase in caspase-3 activity.
To investigate whether down-regulation of Survivin expression sensitizes HeLa cells to chemotherapy, combination treatment with Compound I and either gemcitabine HCl, doxorubicin HCl, or paclitaxel is evaluated. […] At the end of the incubation period, casapse-3 activity is measured. […] Data are expressed as percentage caspase-3 activity compared to untreated control.

[1] = system: U-87 MG human glioblastoma; test: human xenograft tumor model, tumor growth delay; type: in vivo; settings: U-87 MG s.c. xenograft; oligonucleotide 50 mg/kg loading then 25 mg/kg i.v. every other day; gemcitabine HCl 2.5 mg/kg i.p. every third day x4
Method: The use of human xenograft tumor models has been described previously and is well known in the art. The following tumor types can be used to conduct the assay as described below. U-87 MG human glioblastoma are obtained from […] et al., Neoplasia (2000) 2(3):242-50). For xenograft studies, just before implantation, animals are irradiated (450 TBI (total body irradiation)), and cells are mixed in matrigel (1:1). […] All subsequent intravenous doses (25 mg/kg) of Compound I or MM control oligonucleotide are administered every other day. The treatment with sub-optimal doses of gemcitabine HCl, doxorubicin HCl, or paclitaxel is initiated one day following the loading dose. Gemcitabine HCl is administered intraperitoneally at 2.5 mg/kg every third day for a total of four doses. Paclitaxel is administered intravenously at 1 mg/kg every fourth day for a total of four doses. Bi-dimensional measurements are performed twice per week, and tumor volumes are calculated based on the following formula: […] Tumor volume data are transformed to a log scale to equalize variance across time and treatment groups. The data are analyzed using a two-way analysis of variance by time and treatment using SAS PROC MIXED software (SAS Institute, Inc., Cary, N.C.). The preferred correlation model for the repeated measures is AR (Auto Regressive of order 1). Treatment groups are compared at each time point. The data are plotted as means and standard errors for each treatment group versus time. The presence of synergy in combination therapies is assessed on the tumor growth delay (TGD) scale. The time to reach a specified tumor size (1500 or 2000 or 2500 mg in this study) is determined for each animal. […] Maximum likelihood analysis assuming a Weibull distribution is used to calculate mean times and standard errors for each treatment group. Tumor growth delay is the difference in mean times between each of the treated groups and the control group.

| SMILES | Mean (% Caspase-3 Activity) (HeLa cells) [%] | Tumor Growth Delay at 1500 mg, Mean ± S.E.M. [1] [days] | Tumor Growth Delay at 2000 mg, Mean ± S.E.M. [1] [days] | Tumor Growth Delay at 2500 mg, Mean ± S.E.M. [1] [days] |
| --- | --- | --- | --- | --- |
| Cl.Nc1ccn([C@@H]2O[C@H](CO)[C@@H](O)C2(F)F)c(=O)n1 (single isomer, unassigned) [Gemcitabine HCl, 2′-deoxy-2′,2′-difluorocytidine monohydrochloride (⊖-isomer)] | 24.33 | 0.3 ± 1.1 | 0.3 ± 1.2 | 0.6 ± 1 |
| CC(=O)O[C@H]1C(=O)[C@@]2(C)[C@H]([C@H](OC(=O)c3ccccc3)[C@]3(O)C[C@H](OC(=O)[C@H](O)[C@@H](NC(=O)c4ccccc4)c4ccccc4)C(C)=C1C3(C)C)[C@]1(OC(C)=O)CO[C@@H]1C[C@@H]2O [Paclitaxel, 5β, 20-Epoxy-1,2α,4,7β,10β,13α-hexahydroxytax-11-en-9-one 4,10-diacetate 2-benzoate 13-ester with (2R,3 S)—N-benzoyl-3-phenylisoserine] | 12.77 | – | – | – |
